According to patent publication US20150307520A1, “NOVEL HETEROARYL AND HETEROCYCLE COMPOUNDS, COMPOSITIONS AND METHODS THEREOF” (HUTCHISON MEDIPHARMA LIMITED, priority 2012, published 2015):
pIC50: −log10 of the molar value.

Assays:
Format in all cases: biochemical
p110γ = p110γ (Homo sapiens, UniProt P48736); test: Transcreener KINASE Assay, kinase inhibition of p110γ; conditions: for PI3Kγ IH % @ 1 uM: 1 uM test compound; for pIC50: read-out: PI3Kγ IC50
Protocol: Kinase Inhibition assays of p110α/p85α, p110β/p85α, p110δ/p85α and p110γ PI3K kinases including p110α/p85α, p110δ/p85α and p110γ are purchased from Invitrogen, and p110β/p85α is from Millipore. Primary screening data and IC50 values are measured using Transcreener™ KINASE Assay (Bellbrook, Catalog #3003-10K). […] It is a universal, homogenous, high throughput screening (HTS) technology using a far-red, competitive fluorescence polarization immunoassay based on the detection of ADP to monitor the activity of enzymes that catalyze group transfer reactions. Briefly, the Transcreener KINASE Assay is designed as a simple two-part, endpoint assay. […] The plate is sealed and incubated for 80 min at room temperature. Next, 25 ul ADP detection mix is added per well. The plate is sealed again and incubated for 60 min at room temperature, and then measure fluorescence polarization by Tecan Infinite F500 Reader. Data is analyzed and IC50s are generated using the add-in software for Microsoft Excel, Xlfit™ (version 2.0).

p110β/p85α = p110β/p85α (Homo sapiens, UniProt P42338); test: Transcreener KINASE Assay, kinase inhibition of p110β/p85α; conditions: for PI3Kβ IH % @ 1 uM: 1 uM test compound; for pIC50: read-out: PI3Kβ IC50
Protocol: (§1) PI3K kinases including p110α/p85α, p110δ/p85α and p110γ are purchased from Invitrogen, and p110β/p85α is from Millipore.
(§2) Primary screening data and IC50 values are measured using Transcreener™ KINASE Assay (Bellbrook, Catalog #3003-10K). […] It is a universal, homogenous, high throughput screening (HTS) technology using a far-red, competitive fluorescence polarization immunoassay based on the detection of ADP to monitor the activity of enzymes that catalyze group transfer reactions. Briefly, the Transcreener KINASE Assay is designed as a simple two-part, endpoint assay.
(§3) In the first step, the 25 ul kinase reaction is performed by preparing a reaction mixture containing 5 ul test compound (2% DMSO final concentration), 10 ul kinase, buffer (50 mM HEPES, 100 mM NaCl, 1 mM EGTA, 0.03% CHAPS, 3 mM MgCl2, and freshly supplemented 1 mM DTT), and 10 ul 30 uM PIP2/10 uM ATP. The plate is sealed and incubated for 80 min at room temperature. Next, 25 ul ADP detection mix is added per well. The plate is sealed again and incubated for 60 min at room temperature, and then measure fluorescence polarization by Tecan Infinite F500 Reader.
(§4) Data is analyzed and IC50s are generated using the add-in software for Microsoft Excel, Xlfit™ (version 2.0). IH %=(ADP amount under 2% DMSO-ADP amount under test compound)/ADP amount under 2% DMSO.

p110δ/p85α = p110δ/p85α (Homo sapiens, UniProt O00329); test: Transcreener KINASE Assay, kinase inhibition of p110δ/p85α; conditions: for PI3Kδ IH % @ 1 uM: 1 uM test compound; for pIC50: read-out: PI3Kδ IC50
Protocol: as §1, §2, §3, §4

Sequence of p110δ/p85α (O00329 whole entry): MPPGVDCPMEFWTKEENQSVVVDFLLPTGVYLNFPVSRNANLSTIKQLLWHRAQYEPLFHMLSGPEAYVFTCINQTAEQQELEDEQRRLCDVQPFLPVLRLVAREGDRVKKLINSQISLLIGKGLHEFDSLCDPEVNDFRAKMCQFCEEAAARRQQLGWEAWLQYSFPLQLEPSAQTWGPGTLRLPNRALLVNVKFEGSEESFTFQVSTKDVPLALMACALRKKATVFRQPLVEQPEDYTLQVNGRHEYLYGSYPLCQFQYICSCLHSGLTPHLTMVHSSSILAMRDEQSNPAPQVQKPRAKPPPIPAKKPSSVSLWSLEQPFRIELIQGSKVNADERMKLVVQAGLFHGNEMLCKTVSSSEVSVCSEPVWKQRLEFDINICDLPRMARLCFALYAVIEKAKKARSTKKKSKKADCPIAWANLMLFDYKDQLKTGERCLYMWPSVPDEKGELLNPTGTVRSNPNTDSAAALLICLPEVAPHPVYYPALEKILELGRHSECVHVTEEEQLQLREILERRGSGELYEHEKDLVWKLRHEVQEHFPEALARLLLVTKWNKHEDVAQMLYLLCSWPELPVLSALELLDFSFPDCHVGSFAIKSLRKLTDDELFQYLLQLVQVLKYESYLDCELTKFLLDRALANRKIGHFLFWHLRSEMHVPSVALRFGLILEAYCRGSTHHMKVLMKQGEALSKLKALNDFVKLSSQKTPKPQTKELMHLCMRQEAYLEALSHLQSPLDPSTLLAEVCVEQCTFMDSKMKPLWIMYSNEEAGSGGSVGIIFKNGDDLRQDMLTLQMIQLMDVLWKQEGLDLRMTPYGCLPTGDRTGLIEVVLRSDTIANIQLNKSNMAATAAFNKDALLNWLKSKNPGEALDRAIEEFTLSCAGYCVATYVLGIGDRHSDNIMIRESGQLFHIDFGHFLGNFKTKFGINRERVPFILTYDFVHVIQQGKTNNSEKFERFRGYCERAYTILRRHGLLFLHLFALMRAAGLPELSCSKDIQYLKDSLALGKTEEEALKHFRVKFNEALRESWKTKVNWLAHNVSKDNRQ
Sequence of p110δ/p85α (P27986 whole entry partner): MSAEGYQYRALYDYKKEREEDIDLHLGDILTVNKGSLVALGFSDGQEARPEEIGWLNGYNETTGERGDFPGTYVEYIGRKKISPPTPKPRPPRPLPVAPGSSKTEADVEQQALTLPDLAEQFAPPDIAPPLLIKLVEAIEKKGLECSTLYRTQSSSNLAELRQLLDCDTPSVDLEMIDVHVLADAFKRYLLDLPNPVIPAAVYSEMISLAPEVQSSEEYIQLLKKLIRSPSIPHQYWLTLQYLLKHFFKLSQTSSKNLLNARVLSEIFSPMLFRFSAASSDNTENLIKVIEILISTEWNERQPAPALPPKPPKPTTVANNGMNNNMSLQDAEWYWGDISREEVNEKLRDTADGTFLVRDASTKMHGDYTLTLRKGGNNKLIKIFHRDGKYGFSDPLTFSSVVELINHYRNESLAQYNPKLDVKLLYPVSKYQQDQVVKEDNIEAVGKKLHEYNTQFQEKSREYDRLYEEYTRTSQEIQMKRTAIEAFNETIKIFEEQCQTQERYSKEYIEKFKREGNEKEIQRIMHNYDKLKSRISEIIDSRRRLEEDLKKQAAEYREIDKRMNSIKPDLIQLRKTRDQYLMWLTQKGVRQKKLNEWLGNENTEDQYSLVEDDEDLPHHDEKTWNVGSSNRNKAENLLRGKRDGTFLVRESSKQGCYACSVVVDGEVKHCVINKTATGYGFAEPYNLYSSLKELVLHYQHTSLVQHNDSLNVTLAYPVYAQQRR
Sequence of p110γ (P48736 whole entry): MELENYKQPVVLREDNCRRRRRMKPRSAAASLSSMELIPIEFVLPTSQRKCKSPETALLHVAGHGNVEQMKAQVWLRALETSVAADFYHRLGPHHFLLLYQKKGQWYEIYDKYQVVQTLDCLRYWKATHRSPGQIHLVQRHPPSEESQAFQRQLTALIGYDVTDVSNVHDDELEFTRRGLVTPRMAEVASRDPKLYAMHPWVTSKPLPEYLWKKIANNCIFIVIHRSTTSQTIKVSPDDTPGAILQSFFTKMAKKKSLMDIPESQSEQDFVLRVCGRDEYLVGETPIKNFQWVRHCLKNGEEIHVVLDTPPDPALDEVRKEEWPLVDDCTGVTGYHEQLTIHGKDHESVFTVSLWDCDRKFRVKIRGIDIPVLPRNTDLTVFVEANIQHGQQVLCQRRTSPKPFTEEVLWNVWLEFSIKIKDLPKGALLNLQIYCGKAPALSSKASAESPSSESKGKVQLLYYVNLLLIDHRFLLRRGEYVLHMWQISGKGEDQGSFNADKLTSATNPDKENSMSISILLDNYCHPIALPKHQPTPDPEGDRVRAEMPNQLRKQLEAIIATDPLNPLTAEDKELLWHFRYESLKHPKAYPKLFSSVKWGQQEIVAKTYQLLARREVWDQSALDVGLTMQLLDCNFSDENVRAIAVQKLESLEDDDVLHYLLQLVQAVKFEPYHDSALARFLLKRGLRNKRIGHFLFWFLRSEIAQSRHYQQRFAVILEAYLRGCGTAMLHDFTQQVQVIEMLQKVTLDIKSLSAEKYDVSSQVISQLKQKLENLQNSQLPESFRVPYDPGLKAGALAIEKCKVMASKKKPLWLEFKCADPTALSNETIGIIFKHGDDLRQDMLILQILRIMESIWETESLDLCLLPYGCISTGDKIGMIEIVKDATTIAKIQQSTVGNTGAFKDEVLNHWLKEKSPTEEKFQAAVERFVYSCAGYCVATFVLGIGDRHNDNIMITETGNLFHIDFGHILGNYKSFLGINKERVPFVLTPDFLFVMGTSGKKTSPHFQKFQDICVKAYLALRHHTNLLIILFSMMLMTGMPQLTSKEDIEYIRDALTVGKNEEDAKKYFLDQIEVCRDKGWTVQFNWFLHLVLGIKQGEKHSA
Sequence of p110β/p85α (P42338 whole entry): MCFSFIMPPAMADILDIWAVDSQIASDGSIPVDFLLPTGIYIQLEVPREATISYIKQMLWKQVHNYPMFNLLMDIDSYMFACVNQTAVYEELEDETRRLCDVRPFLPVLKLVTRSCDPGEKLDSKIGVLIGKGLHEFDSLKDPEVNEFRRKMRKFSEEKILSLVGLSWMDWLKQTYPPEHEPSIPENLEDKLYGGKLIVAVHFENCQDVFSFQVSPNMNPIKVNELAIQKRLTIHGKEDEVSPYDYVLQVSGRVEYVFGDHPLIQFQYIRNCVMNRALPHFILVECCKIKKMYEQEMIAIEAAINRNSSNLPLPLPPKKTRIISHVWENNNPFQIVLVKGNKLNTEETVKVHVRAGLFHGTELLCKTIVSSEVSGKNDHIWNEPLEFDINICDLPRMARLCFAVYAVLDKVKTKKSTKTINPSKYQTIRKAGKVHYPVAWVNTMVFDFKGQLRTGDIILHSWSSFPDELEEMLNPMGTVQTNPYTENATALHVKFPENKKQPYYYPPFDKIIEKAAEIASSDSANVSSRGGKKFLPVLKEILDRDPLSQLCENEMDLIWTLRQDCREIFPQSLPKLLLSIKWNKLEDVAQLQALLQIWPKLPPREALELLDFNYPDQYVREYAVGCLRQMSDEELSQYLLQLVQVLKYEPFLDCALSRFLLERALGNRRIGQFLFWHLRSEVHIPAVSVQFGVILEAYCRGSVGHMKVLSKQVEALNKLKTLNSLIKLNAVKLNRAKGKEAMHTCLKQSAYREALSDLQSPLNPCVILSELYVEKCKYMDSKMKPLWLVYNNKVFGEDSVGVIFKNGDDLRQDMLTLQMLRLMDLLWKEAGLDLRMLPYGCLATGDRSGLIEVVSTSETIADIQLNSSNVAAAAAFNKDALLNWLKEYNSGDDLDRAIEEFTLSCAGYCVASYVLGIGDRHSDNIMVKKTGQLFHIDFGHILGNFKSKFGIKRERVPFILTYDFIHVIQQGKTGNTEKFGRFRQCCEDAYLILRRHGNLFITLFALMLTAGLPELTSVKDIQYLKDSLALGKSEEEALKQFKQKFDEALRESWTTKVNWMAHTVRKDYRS
Sequence of p110β/p85α (P27986 2-724 partner): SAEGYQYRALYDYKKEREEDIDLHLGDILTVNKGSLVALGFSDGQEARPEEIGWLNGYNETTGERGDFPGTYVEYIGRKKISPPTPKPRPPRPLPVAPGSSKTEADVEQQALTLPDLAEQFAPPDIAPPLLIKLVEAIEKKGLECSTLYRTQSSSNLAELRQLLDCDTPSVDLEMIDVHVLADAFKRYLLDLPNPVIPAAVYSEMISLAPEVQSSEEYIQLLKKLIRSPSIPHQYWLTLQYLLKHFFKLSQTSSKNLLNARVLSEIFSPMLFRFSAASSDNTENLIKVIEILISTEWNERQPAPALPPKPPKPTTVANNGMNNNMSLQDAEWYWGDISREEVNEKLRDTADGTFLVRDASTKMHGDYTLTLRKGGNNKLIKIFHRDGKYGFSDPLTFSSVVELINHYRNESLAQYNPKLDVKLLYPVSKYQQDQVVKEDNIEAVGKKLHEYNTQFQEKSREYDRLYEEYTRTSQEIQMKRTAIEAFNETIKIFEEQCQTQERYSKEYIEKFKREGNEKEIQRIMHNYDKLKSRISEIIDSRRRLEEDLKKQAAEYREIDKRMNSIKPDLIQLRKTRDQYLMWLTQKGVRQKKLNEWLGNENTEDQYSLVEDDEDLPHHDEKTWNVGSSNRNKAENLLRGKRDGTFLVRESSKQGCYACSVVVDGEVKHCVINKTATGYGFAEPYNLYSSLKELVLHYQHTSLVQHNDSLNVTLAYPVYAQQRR

## C[C@H](Nc1nc(N)ncc1C#N)c1cc2ncc(Cl)n2c(=O)n1-c1ccccc1 (single isomer, unassigned) [Compound 385]
p110γ
  PI3Kγ IH % @ 1 uM: 95.9%
  pIC50: 8.00
p110β/p85α
  PI3Kβ IH % @ 1 uM: 83.3%
  pIC50: 7.12
p110δ/p85α
  PI3Kδ IH % @ 1 uM: >100%
  pIC50: 8.40

## C[S@+]([O-])c1c[nH]c2ncnc(N3CCC[C@H]3c3nn4ccc(Cl)c4c(=O)n3-c3cccc(F)c3)c12 (single isomer, unassigned) [Compound 386]
p110γ
  PI3Kγ IH % @ 1 uM: 95.0%
  pIC50: 7.68
p110β/p85α
  PI3Kβ IH % @ 1 uM: 76.8%
  pIC50: 6.49
p110δ/p85α
  PI3Kδ IH % @ 1 uM: >100%
  pIC50: 8.52

## C[S+]([O-])c1c[nH]c2ncnc(N3CCC[C@H]3c3nn4ccc(Cl)c4c(=O)n3-c3cccc(F)c3)c12 (single isomer, unassigned) [Compound 387]
p110γ
  PI3Kγ IH % @ 1 uM: >100%
  pIC50: 8.05
p110β/p85α
  PI3Kβ IH % @ 1 uM: 39.6%
p110δ/p85α
  PI3Kδ IH % @ 1 uM: 98.2%
  pIC50: 8.15

## C[S+]([O-])c1c[nH]c2ncnc(N3CCC[C@H]3c3nn4ccc(Cl)c4c(=O)n3-c3ccccn3)c12 (single isomer, unassigned) [Compound 389]
p110γ
  PI3Kγ IH % @ 1 uM: 87.9%
  pIC50: 7.34
p110β/p85α
  PI3Kβ IH % @ 1 uM: 32.7%
p110δ/p85α
  PI3Kδ IH % @ 1 uM: 95.4%
  pIC50: 8.15

## CC(Nc1nc(N)nc2c1C(=O)CCN2)c1cn2ccc(F)c2c(=O)n1-c1ccccc1 (single isomer, unassigned) [Compound 407]
p110γ
  PI3Kγ IH % @ 1 uM: >100%
p110β/p85α
  PI3Kβ IH % @ 1 uM: >100%
p110δ/p85α
  PI3Kδ IH % @ 1 uM: 94.9%

## CC(=O)c1cnc(N)nc1N[C@H](C)c1cc2ncc(Cl)n2c(=O)n1-c1ccccc1 (single isomer, unassigned) [Compound 448]
p110γ
  PI3Kγ IH % @ 1 uM: 82.3%
  pIC50: 6.98
p110β/p85α
  PI3Kβ IH % @ 1 uM: 55.9%
p110δ/p85α
  PI3Kδ IH % @ 1 uM: 98.8%
  pIC50: 7.77

## CC(Nc1nc(N)ncc1C#N)c1cn2ccc(F)c2c(=O)n1-c1ccccc1 (single isomer, unassigned) [Compound 449]
p110γ
  PI3Kγ IH % @ 1 uM: 97.8%
p110β/p85α
  PI3Kβ IH % @ 1 uM: 87.2%
p110δ/p85α
  PI3Kδ IH % @ 1 uM: 96.1%

## CC(Nc1ncnc2[nH]cc(F)c12)c1cc2ncc(Cl)n2c(=O)n1-c1ccccc1 (single isomer, unassigned) [Compound 450]
p110γ
  PI3Kγ IH % @ 1 uM: 98.6%
p110β/p85α
  PI3Kβ IH % @ 1 uM: 76.9%
p110δ/p85α
  PI3Kδ IH % @ 1 uM: 99.3%

## CC(Nc1ncnc2[nH]cc(F)c12)c1cc2ncc(Cl)n2c(=O)n1-c1ccccc1 (single isomer, unassigned) [Compound 451]
p110γ
  PI3Kγ IH % @ 1 uM: 40.5%
p110β/p85α
  PI3Kβ IH % @ 1 uM: 4.2%
p110δ/p85α
  PI3Kδ IH % @ 1 uM: 96.4%

## CC(=O)c1cnc(N)nc1NC(C)c1cn2ccc(F)c2c(=O)n1-c1ccccc1 (single isomer, unassigned) [Compound 452]
p110γ
  PI3Kγ IH % @ 1 uM: 92.5%
p110β/p85α
  PI3Kβ IH % @ 1 uM: 97.0%
p110δ/p85α
  PI3Kδ IH % @ 1 uM: >100%

## CC(=O)c1cnc(N)nc1N1CC(C)(C)C1c1nn2ccc(Cl)c2c(=O)n1-c1ccccc1 (stereo in doubt) [Compound 484, (R)-2-(1-(5-acetyl-2-aminopyrimidin-4-yl)-3,3-dimethylazetidin-2-yl)-5-chloro-3-phenylpyrrolo[2,1-f][1,2,4]triazin-4(3H)-one]
p110γ
  PI3Kγ IH % @ 1 uM: >100%
  pIC50: 8.22
p110β/p85α
  PI3Kβ IH % @ 1 uM: 88.3%
  pIC50: 7.66
p110δ/p85α
  PI3Kδ IH % @ 1 uM: >100%
  pIC50: 10.00

## N#Cc1c(N)ncnc1N1CC[C@H]1c1nn2cccc2c(=O)n1-c1ccccc1 [Compound 8]
p110γ
  PI3Kγ IH % @ 1 uM: 40.2%
p110β/p85α
  PI3Kβ IH % @ 1 uM: 33.3%
p110δ/p85α
  PI3Kδ IH % @ 1 uM: 76.2%
  pIC50: 6.57

## Nc1ncnc(N2CCC[C@H]2c2nn3ccc(Cl)c3c(=O)n2-c2ccccc2)c1Cl [Compound 27]
p110γ
  PI3Kγ IH % @ 1 uM: 92.7%
  pIC50: 7.29
p110β/p85α
  PI3Kβ IH % @ 1 uM: 82.6%
  pIC50: 7.00
p110δ/p85α
  PI3Kδ IH % @ 1 uM: >100%
  pIC50: 8.52

## COc1cccc(-n2c([C@@H]3CCN3c3ncnc4[nH]cnc34)nn3ccc(Cl)c3c2=O)c1 [Compound 33]
p110γ
  PI3Kγ IH % @ 1 uM: 63.7%
p110β/p85α
  PI3Kβ IH % @ 1 uM: −3.1%
p110δ/p85α
  PI3Kδ IH % @ 1 uM: 71.9%
  pIC50: 6.67

## N#Cc1c[nH]c2ncnc(N3CC[C@H]3c3nn4ccc(Cl)c4c(=O)n3-c3ccc(F)cc3)c12 [Compound 37]
p110γ
  PI3Kγ IH % @ 1 uM: 83.3%
  pIC50: 7.05
p110β/p85α
  PI3Kβ IH % @ 1 uM: 30.6%
p110δ/p85α
  PI3Kδ IH % @ 1 uM: 81.2%

## N#Cc1cccc(-n2c([C@@H]3CCCN3c3ncnc4[nH]cc(C#N)c34)nn3ccc(Cl)c3c2=O)c1 [Compound 39]
p110γ
  PI3Kγ IH % @ 1 uM: 16.5%
p110β/p85α
  PI3Kβ IH % @ 1 uM: 20.7%
p110δ/p85α
  PI3Kδ IH % @ 1 uM: 94.2%
